Data from patent EP2573105B1, “p16INK4a derived peptides for prophylaxis and therapy of HPV-associated tumors and other p16INK4a expressing tumors” (Ruprecht-Karls-Universität Heidelberg, priority 2011, dated 2013).

System: Peripheral blood mononuclear cells (PBMCs)
Assay: BrdU proliferation assay of PBMCs incubated with p16INK4a peptides
Format: cell-based, human
Conditions: first reacting patient; PBMCs from women with CIN2/3
Protocol: Peripheral blood mononuclear cells (PBMCs) from 13 women with p16^INK4a-expressing high grade cervical dysplasia (CIN2/3) were incubated with p16^INK4a peptides (Table 1) to determine the proliferative capacity of the immune cells by applying a BrdU assay as a global measure for lymphoproliferative potential after challenge with the p16^INK4a peptides. The BrdU-assay is a colorimetric immunoassay applied for the quantification of cell proliferation based on the measurement of the thymidine analogue 5-bromo-2'-deoxyuridine incorporation during DNA synthesis. PBMCs in IMDM medium supplemented with 10% human serum were seeded in a 96-well-microtiter-plate (flat bottom) at a density of 150.000 cells/50µl/well. Cells in each 4 replicate wells were incubated in the presence of the seven p16INK4a peptides (Table 1), tetanus toxoid (20 ng/ml, Calbiochem, La Jolla, CA) and mitogen PHA-L (5 µg/ml, Roche, Mannheim, Germany) as positive controls and no antigen as negative control for 6 days at 37°C, 5% CO2. […] The enzyme reaction was stopped by adding 25 µl/well 1N H2SO4 and optical density (OD) was measured at 450 nm (reference wavelength 620 nm). […]

## GHRDVARYLRAAAGGTRGSNHARIDAAEGPSDIPD [p16INK4a_123-156]
  response (proliferation, BrdU assay): showed response
